Consider nine molecules from US5434165A, “Nootropic agents, compositions of, and method of use thereof” (Sanawa Kagaku Kenkyusho Company, Ltd., priority 1991, dated 1995).

Like-named read-outs stand apart in the source and are kept apart here.

The subject of data set [1] is scopolamine-induced inhibition of memory retention. The experiment in a line: Passive avoidance learning test, scopolamine-induced memory retention defect (Test Example 1). The data set is classed as in vivo, mice. The conditions noted are these: 5 min after scopolamine 0.25 mg/kg i.p., remembrance test after 24 h. The protocol:
A passive avoidance learning test using mice was conducted to examine whether scopolamine-induced inhibition of memory retention can be improved by the compound of the present invention.
A training box composed of a light room and a dark room having the same structure was used. The dark room is designed so that a foot shock is given to a test animal via a grid of the floor. An opening is provided on the partitioning wall of the two rooms to let animals in and out freely.
Scopolamine hydrobromide dissolved in physiological saline was intraperitoneally administered to a mouse at a dose of 0.25 mg/kg.
Five minutes after the scopolamine administration, a test compound was intraperitoneally administered to the mouse at a dose shown in Table 1 below (test group).
The animal was put in the light room. Immediately after the animal moved into the dark room, a foot shock was given until the animal returned to the light room.
After 24 hours from the training, the animal was again put in the light room, and the time required for the animal's moving to the dark room was measured up to 300 seconds.
The data from the remembrance test were analyzed to obtain a percent prolongation of the memory retention time of the test group based on that of the control group having received no test compound.

The target in data set [2] is T1, 3H-Pirenzepine bonding to rat brain homogenate (Rattus norvegicus, UniProt P08482).
T1 construct: to obtain a rat brain homogenate for testing; from tissue; host or cells: brain without cerebellum, SD male rat (homogenate, 1000×g supernatant)
T1 sequence (P08482 1-460): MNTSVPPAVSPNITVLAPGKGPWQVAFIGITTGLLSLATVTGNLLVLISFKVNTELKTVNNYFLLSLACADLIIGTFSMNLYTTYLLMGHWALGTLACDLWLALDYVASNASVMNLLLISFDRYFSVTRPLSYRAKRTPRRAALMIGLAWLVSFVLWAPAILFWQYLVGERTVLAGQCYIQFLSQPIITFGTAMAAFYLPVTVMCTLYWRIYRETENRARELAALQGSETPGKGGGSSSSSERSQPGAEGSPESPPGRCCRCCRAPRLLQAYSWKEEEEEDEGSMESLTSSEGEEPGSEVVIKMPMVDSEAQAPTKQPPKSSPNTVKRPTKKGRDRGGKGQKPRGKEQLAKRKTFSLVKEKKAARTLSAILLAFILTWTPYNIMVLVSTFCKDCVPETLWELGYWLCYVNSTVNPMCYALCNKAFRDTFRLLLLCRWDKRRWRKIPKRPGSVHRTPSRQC
The experiment in a line: 3H-Pirenzepine bonding inhibition test, rat brain homogenate (Test Example 2). The data set is classed as binding, SD male rat. The protocol:
A rat brain homogenate was prepared according to the method of Yamamura and Synder (Proc. Nat. Acad. Sci. USA, Vol. 71, pp. 1725-1729 (1974)).
An SD male rat was sacrificed by decapitation, and the brain excised. After the cerebellum was removed, 0.32 M sucrose was added thereto in an amount 10 times the weight of the brain under ice cooling, followed by homogenizing in a Potter-Elvehjem glass homogenizer. The resulting homogenate was centrifuged at 1000×g for 10 minutes, the precipitate removed, and the supernatant further homogenized with a Polytron (manufactured by KINEMATICA) to obtain a rat brain homogenate for testing.
The method of Flynn and Mash (J. Pharm. Exp. Therm., Vol. 250, pp. 573-581 (1989)) was followed.
A mixture consisting of 0.035 ml of the above prepared rat brain homogenate (protein content: 0.6 mg), 1 ml of a 50 mM phosphoric acid buffer (pH 7.4) containing 2.0 nM ^3 H-pirenzepine, and 1 ml of a test compound dissolved in the same buffer was allowed to react at room temperature for 60 minutes. To the reaction mixture was added 3.0 ml of the same buffer as used above as cooled with ice, and the mixture was filtered through Whatman GF/B filter paper having been previously impregnated with a 0.1% polyethyleneimine solution for 60 minutes. The filter cake was washed twice with 3.0 ml of the same buffer, the filter paper taken out, an emulsion scintillator added, and the scintillation measured with a liquid scintillation counter to obtain a 50% inhibitory concentration (IC50) of the test compound on ^3 H-pirenzepine bonding to the rat brain homogenate.

The subject of a further data set is male mouse. Put plainly: Acute Toxicity Test (Test Example 3). The conditions noted are these: 100 mg/kg i.p., 5-week-old male mouse. The data set is classed as in vivo. As for the experimental part: The compound of Example 11, suspended in 5% gum arabic, was intraperitoneally achninistered to a 5-week-old […] male mouse. General manifestation of toxicity was observed over 60 minutes after the administration, and the animal's death was observed up to 24 hours from the administration.

The mark [3] stands for this setting: 2.0 nM 3H-pirenzepine, pH 7.4, room temperature, 60 min, read-out: IC50 (50% inhibitory concentration on 3H-pirenzepine bonding).

Consider `O=[N+]([O-])c1c(NCC23CCCN2CCC3)cnc2ccccc12` [Example 6, 3-(1-Azabicyclo[3.3.0]octan-5-yl)methylamino-4-nitroquinoline], for which, in data set [1] (dose 1000 μg/kg i.p.), the “Percent Prolongation (of memory retention time vs control)” value (“Percent Prolongation” for short) amounted to 55.1%. Further, in data set [2] (setting [3]), the IC50 is 1200 nM.

Consider `O=[N+]([O-])c1ccc(NCC23CCCN2CCC3)cc1` [Example 10, 1-(1-Azabicyclo[3.3.0]octan-5-yl)methylamino-4-nitrobenzene], for which, in data set [1] (dose 1000 μg/kg i.p.), the “Percent Prolongation” value came to 26.5%.

In the case of `O=[N+]([O-])c1ccc(NCC23CCCN2CCC3)c2ccccc12` [Example 11, 1-(1-Azabicyclo[3.3.0]octan-5-yl)methylamino-4-nitronaphthalene], the “general manifestation of toxicity” value in the data set with male mouse (observed over 60 minutes) is reported as “neither general manifestation of toxicity nor death was observed”. For the same molecule, the death entry with male mouse (observed up to 24 hours) is listed as “neither general manifestation of toxicity nor death was observed”. Also, the “Percent Prolongation” value in data set [1] (dose 1 μg/kg i.p.) stood at 30.9%; in data set [1] (dose 10 μg/kg i.p.) it was 91.7%; in data set [1] (dose 100 μg/kg i.p.) it was 120.9%; in data set [1] (dose 1000 μg/kg i.p.), 152.6%. Besides, the IC50 in data set [2] was 900 nM.

On to `CC(C)N(CCNc1ccc([N+](=O)[O-])c2ccccc12)C(C)C` [Example 14, 1-(2-Diisopropylaminoethyl)amino-4-nitronaphthalene], for which the IC50 in data set [2] (setting [3]) was determined as 900 nM.

Consider `CN(CC12CCCN1CCC2)c1ccc([N+](=O)[O-])c2ccccc12` [Example 15, 1[N-(1-Azabicyclo[3.3.0]octan-5-yl)methyl-N-methylamino]-4-nitronaphthalene], for which the “Percent Prolongation” value in data set [1] (dose 0.01 μg/kg i.p.) was 111.6%; in data set [1] (dose 0.1 μg/kg i.p.) it was 68.8%; in data set [1] (dose 1 μg/kg i.p.) it was 85.2%. The same molecule returned an IC50 in data set [2] of 40 nM.

For `O=[N+]([O-])c1cccc2c(NCC34CCCN3CCC4)cccc12` [Example 17, 1-(1-Azabicyclo[3.3.0]octan-5-yl)methylamino-5-nitronaphthalene], in data set [2], the IC50 stood at 800 nM.

`CN(CC12CCCN1CCC2)c1c([N+](=O)[O-])ccc2ccccc12` [Example 18, 1-[N-(1-Azabicyclo[3.3.0]octan-5-yl)methyl-N-methylamino]-2-nitronaphthalen]: the entries for the “Percent Prolongation” value in data set [1] (dose 0.01 μg/kg i.p.) and in data set [1] (dose 0.1 μg/kg i.p.) were 117.9% and 115.9%, respectively. The IC50 in data set [2] (setting [3]) was 440 nM.

`O=[N+]([O-])c1c2ccccc2c(NCC23CCCN2CCC3)c2ccccc12` [Example 19, 9-(1-Azabicyclo[3.3.0]octan-5-yl)methylamino-10-nitroanthracene]: the IC50 in data set [2] (setting [3]) amounted to 1400 nM.

Turning to `Nc1c2c(nc3ccccc13)CCCC2` [THA, 1,2,3,4-tetrahydro-9-aminoacridine, reference compound], the entries for the “Percent Prolongation” value in data set [1] (dose 100 μg/kg i.p.) and in data set [1] (dose 1000 μg/kg i.p.) were 24.4% and 74.8%, respectively.
